The values below come from patent US20100144749A1, “TREATMENT OF CANCERS WITH ACQUIRED RESISTANCE TO KIT INHIBITORS” (priority 2005, published 2010).

Assay type in all cases: cell-based, murine
The subject of assay [1] is Ba/F3 cells expressing c-KIT Exon 11/Y823D Gleevec-resistant double mutant. As to the kind of experiment: Cell proliferation assay (CellTiter-Glo), Ba/F3 c-KIT exon 11/Y823D. Particulars: Mus musculus, BaF3, 72 h, dose range 0.6 to 10,000 nM, mean of at least three experiments, read-out: IC50 of cell proliferation inhibition, Exon 11/Gleevec-resistant Double Mutant Y823D. The method, then:
(§1) All mutations were confirmed by DNA sequencing.
(§2) Selective pressure was applied to the transfected cells by removing IL-3 from the culture medium. After IL-independent populations, further selective pressure was applied by also growing the cells in the presence of 1 mg/mL G418. […] The stable pools were further characterized by sequencing genomic DNA to confirm the presence of the transfected c-KIT cDNA.
(§3) This assay utilizes cellular ATP as a marker for cell proliferation/viability. […] Plates were then incubated in a 5% CO2 incubator at 37° C. for 3 days. After 72 h, 100 microliters of lysis/luciferase reagent (CellTiter-Glo, Promega G7573) was added to each well. The cells were then incubated on a shaker for 5 minutes at room temperature, and luminescence was measured on a Victor 5 (Perkin Elmer) spectrophotometer. Growth inhibition was measured by comparing luminescence signal from treated vs. untreated cells in assay plates, and the IC50 analysis of cell proliferation inhibition by compounds was analyzed using Analyze 5 in-house software. […] The IC50 values are mean values calculated from at least three experiments.
A general note: Cellular ATP, detected with luciferase, serves as a proxy for viable cell number.

The subject of assay [2] is Ba/F3 cells expressing c-KIT Exon 11/D816G Gleevec-resistant double mutant. Briefly: Cell proliferation assay (CellTiter-Glo), Ba/F3 c-KIT exon 11/D816G. Particulars: Mus musculus, BaF3, 72 h, dose range 0.6 to 10,000 nM, mean of at least three experiments, read-out: IC50 of cell proliferation inhibition, Exon 11/Gleevec-resistant Double Mutant D816G. The method, then:
as §1, §2, §3

Assay [3] concerns c-KIT-expressing Ba/F3 cell lines, Gleevec-resistant double mutants versus Exon 11 mutant. Briefly: Potency shift caused by c-KIT resistance mutations (summary of Table 2). Particulars: double mutants relative to Exon 11 mutant, from Table 2. The method, then: as §1, §2, §3
For assay [4], the system named is Ba/F3 cells expressing human c-KIT with exon 11 deletion of residues 557-558. Briefly: Cell proliferation assay (CellTiter-Glo), Ba/F3 c-KIT exon 11 deletion mutant. Particulars: BaF3; Ba/F3, c-KIT exon 11 del 557-558; 72 h; dose range 0.6 to 10,000 nM; mean of at least three experiments; read-out: IC50 of cell proliferation inhibition, Exon 11 (WT). The method, then: as §1, §2, §3

Assay [5] deals with Ba/F3 cells expressing c-KIT Exon 11/V654A Gleevec-resistant double mutant. Briefly: Cell proliferation assay (CellTiter-Glo), Ba/F3 c-KIT exon 11/V654A. Particulars: Mus musculus, BaF3, 72 h, dose range 0.6 to 10,000 nM, mean of at least three experiments, read-out: IC50 of cell proliferation inhibition, Exon 11/Gleevec-resistant Double Mutant V654A. How it is done: as §1, §2, §3

The test system of assay [6] is Ba/F3 cells expressing c-KIT Exon 11/N822K Gleevec-resistant double mutant. Briefly: Cell proliferation assay (CellTiter-Glo), Ba/F3 c-KIT exon 11/N822K. Particulars: Mus musculus, BaF3, 72 h, dose range 0.6 to 10,000 nM, mean of at least three experiments, read-out: IC50 of cell proliferation inhibition, Exon 11/Gleevec-resistant Double Mutant N822K. The method, then:
as §1, §2, §3

On to `CNC(=O)c1cc(Oc2ccc(NC(=O)Nc3ccc(Cl)c(C(F)(F)F)c3)cc2)ccn1` [BAY 43-9006, N-[4-chloro-3-(trifluoromethyl)phenyl]-N′-{4-[2-carbamoyl-1-oxo-(4-pyridyloxy)]phenyl} urea], for which the IC50 amounted to 0.036 µM in assay [1]; 0.008 µM in assay [2]; 0.003 µM in assay [4]; 0.046 µM in assay [5]; 0.017 µM in assay [6]. Besides, in assay [3], the “decrease of drug potency caused by c-KIT resistance mutations” value is recorded as “no more than 15 fold”.
